Measured values published in ChEMBL document CHEMBL4406802, “Human disorders associated with inflammation and the evolving role of natural products to overcome” (Eur J Med Chem, 2019).
In brackets after ≈: the same amount, converted by molar mass. Values belong to the compound of their own block, whether it stands above or below them.

Assays:
[1] = target: T1, Prostaglandin G/H synthase 2 (Homo sapiens) (UniProt P35354); assay: Inhibition of human COX2 at 10 uM using arachidonic acid as substrate measured for 300 secs intervals from 3 to 10 secs in presence of hematin by fluorescence assay relative to control
T1 sequence (whole entry): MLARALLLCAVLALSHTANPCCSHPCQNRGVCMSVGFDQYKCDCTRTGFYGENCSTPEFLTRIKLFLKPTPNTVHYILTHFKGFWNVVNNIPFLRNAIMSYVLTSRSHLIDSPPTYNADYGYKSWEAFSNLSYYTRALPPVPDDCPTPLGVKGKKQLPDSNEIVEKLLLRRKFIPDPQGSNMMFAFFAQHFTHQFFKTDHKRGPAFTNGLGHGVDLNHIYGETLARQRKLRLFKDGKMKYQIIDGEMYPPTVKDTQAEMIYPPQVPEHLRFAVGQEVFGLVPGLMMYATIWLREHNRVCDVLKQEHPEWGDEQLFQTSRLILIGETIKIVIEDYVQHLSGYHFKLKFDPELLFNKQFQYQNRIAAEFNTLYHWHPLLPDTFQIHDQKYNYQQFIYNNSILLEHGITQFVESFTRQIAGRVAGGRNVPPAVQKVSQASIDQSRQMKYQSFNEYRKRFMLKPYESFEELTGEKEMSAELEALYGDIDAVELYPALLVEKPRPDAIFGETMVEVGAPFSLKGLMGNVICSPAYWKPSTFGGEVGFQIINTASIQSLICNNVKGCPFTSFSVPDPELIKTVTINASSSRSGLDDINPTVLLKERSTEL

RAW264.7 [2] = assay: Antiinflammatory activity in mouse RAW264.7 cells assessed as inhibition of LPS-induced nitric oxide production after 24 hrs by Griess reagent based assay; assay type: functional, cell-based; conditions: RAW264.7, 24 h
[3] = target: T2, Prostaglandin G/H synthase 2 (Ovis aries, UniProt P79208); assay: Inhibition of recombinant ovine COX2 using arachidonic acid as substrate preincubated for 15 mins followed by arachidonic acid addition measured after 2 mins by ELISA
T2 sequence (P79208 whole entry): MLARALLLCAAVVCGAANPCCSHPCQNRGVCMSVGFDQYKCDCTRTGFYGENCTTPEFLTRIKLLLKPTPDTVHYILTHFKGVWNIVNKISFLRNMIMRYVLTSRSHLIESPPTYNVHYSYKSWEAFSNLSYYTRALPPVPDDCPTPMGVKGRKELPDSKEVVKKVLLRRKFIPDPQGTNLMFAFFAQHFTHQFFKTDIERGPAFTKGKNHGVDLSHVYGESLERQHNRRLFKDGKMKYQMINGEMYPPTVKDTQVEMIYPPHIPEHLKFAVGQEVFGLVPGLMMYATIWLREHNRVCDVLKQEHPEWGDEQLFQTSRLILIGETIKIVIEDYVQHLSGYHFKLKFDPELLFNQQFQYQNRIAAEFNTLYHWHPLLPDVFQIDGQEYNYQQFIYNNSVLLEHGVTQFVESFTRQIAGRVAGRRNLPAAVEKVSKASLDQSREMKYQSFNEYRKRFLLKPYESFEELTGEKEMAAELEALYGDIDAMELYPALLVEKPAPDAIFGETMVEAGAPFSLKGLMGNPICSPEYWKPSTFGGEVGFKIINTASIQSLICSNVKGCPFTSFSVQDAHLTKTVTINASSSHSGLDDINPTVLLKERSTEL

[4] = target: T3, Prostaglandin G/H synthase 2 (Homo sapiens, UniProt P35354); assay: Inhibition of COX2 (unknown origin)
T3 sequence (P35354 whole entry): T1 sequence (whole entry)

RAW264.7 [5] = assay: Antiinflammatory activity in mouse RAW264.7 cells assessed as inhibition of LPS-induced nitric oxide production; assay type: functional, cell-based

SMILES: COc1cc(OC)c(C(=O)/C=C/c2ccc(O)cc2)c(OC)c1
inhibition [1]: 62.2%

SMILES: CC(=O)OC[C@H]1O[C@@H](OCCc2ccc(O)c(O)c2)[C@H](O[C@@H]2OC[C@](O)(CO)[C@H]2O)[C@@H](O[C@@H]2O[C@@H](C)[C@H](O)[C@@H](O)[C@H]2O)[C@@H]1OC(=O)/C=C/c1ccc(O)c(O)c1
IC50 [3]: 16 µM

SMILES: COOC[C@@]1(C)CC[C@]2(C)CC[C@]3(C)[C@@H]4CC(=O)c5cc(OC)c(O)cc5[C@]4(C)CC[C@@]3(C)C2C1 (stereo not given in full)
IC50 [4]: 660 µM

SMILES: O=C(OC[C@@]1(O)CO[C@@H](O[C@H]2[C@H](Oc3ccc(O)c(O)c3)O[C@H](CO)[C@@H](O)[C@@H]2O)[C@@H]1O)c1ccc(O)c(O)c1
IC50 [3]: 24.7 µM

SMILES: CC[C@H](CC[C@@H](C)[C@H]1CC[C@H]2[C@@H]3C[C@H](O)C4=CC(=O)CC[C@]4(C)[C@H]3CC[C@]12C)C(C)C
IC50 (RAW264.7 [5]): 86.7 µM

SMILES: COc1cc(/C=C/C(=O)O[C@H]2CC[C@]3(C)[C@H]4CC=C5[C@@H]6CC(C)(C)CC[C@]6(C(=O)O)CC[C@@]5(C)[C@]4(C)CC[C@H]3C2(C)C)ccc1O
IC50 (RAW264.7 [5]): 54.1 µM

SMILES: C[C@@H]1O[C@@H](O[C@@H]2[C@@H](O)[C@H](OCCc3ccc(O)c(O)c3)O[C@H](CO)[C@H]2OC(=O)/C=C/c2ccc(O)c(O)c2)[C@H](O)[C@H](O)[C@H]1O [ACETOSIDE]
IC50 [3]: 11.3 µM

SMILES: COc1cc(OC)c(C(=O)CCc2ccc(O)cc2)c(OC)c1
inhibition [1]: 54.4%

SMILES: CC(C)[C@@H](C)/C=C/[C@@H](C)[C@H]1CC[C@@H]2[C@]1(C)CC[C@H]1[C@]23C=C[C@]2(C[C@@H](O)CC[C@]12C)OO3 [ERGOSTEROL PEROXIDE]
IC50 (RAW264.7 [5]): 28.7 µM

SMILES: CC(C)=CCc1c(O)ccc(C(=O)/C=C/c2ccc(O)c([C@H]3C=C(C)CC(c4ccc(O)cc4O)[C@H]3C(=O)c3ccc(O)cc3O)c2O)c1O (stereo not given in full)
IC50 (RAW264.7 [2]): 8.5 µg/mL (≈ 12.5 µM)

SMILES: COc1ccc(CC2COc3cc(O)cc(O)c3C2=O)cc1 (stereo not given)
inhibition [1]: 20.9%

SMILES: C[C@@H]1O[C@@H](O[C@@H]2[C@@H](O)[C@H](OCCc3ccc(O)cc3)O[C@H](CO)[C@H]2OC(=O)/C=C/c2ccc(O)c(O)c2)[C@H](O)[C@H](O[C@@H]2OC[C@](O)(CO)[C@H]2O)[C@H]1O
IC50 [3]: 36 µM

SMILES: Oc1ccc(/C=C/c2cc(O)cc(O)c2)cc1 [RESVERATROL]
IC50 (RAW264.7 [2]): 24.1 µg/mL (≈ 106 µM)

SMILES: O=C(/C=C/c1ccc(O)cc1)c1ccc(O)cc1O [ISOLIQUIRITIGENIN]
IC50 (RAW264.7 [2]): 3.4 µg/mL (≈ 13.3 µM)

SMILES: C=C(C)[C@@H]1CC[C@]2(C(=O)O)CC[C@]3(C)[C@H](CC[C@@H]4[C@@]5(C)CC[C@H](O)C(C)(C)[C@@H]5CC[C@]43C)[C@@H]12 [BETULINIC ACID]
IC50 (RAW264.7 [5]): 42.5 µM

Second part, the compound after the results:

IC50 (RAW264.7 [2]): 7.9 µg/mL (≈ 27.6 µM)
SMILES: COc1cc(O)cc(-c2cc3cc(O)c(OC)cc3o2)c1

IC50 (RAW264.7 [2]): 3.5 µg/mL (≈ 8.28 µM)
SMILES: C=C(C)[C@H](O)CC/C(C)=C/Cc1c(O)cc2oc(-c3ccc(O)cc3)cc(=O)c2c1O

IC50 (RAW264.7 [2]): 5.3 µg/mL (≈ 13.5 µM)
SMILES: COc1cc(O)cc(-c2cc3ccc(O)cc3o2)c1C/C=C(\C)CCC=C(C)C

IC50 (RAW264.7 [2]): 3.5 µg/mL (≈ 11.1 µM)
SMILES: COc1c(-c2ccc(O)c(O)c2)oc2cc(O)cc(O)c2c1=O [3-O-METHYLQUERCETIN]

IC50 (RAW264.7 [2]): 7.5 µg/mL (≈ 26.2 µM)
SMILES: COc1cc(O)cc(-c2cc3cc(OC)c(O)cc3o2)c1

IC50 (RAW264.7 [5]): 7.3 µg/mL
SMILES: C=C(C)C(O)Cc1c(-c2ccc(O)cc2O)oc2c(CC=C(C)C)c(O)cc(O)c2c1=O (stereo not given)

IC50 (RAW264.7 [5]): 9.2 µg/mL
SMILES: CC(C)=CCc1c(-c2ccc(O)cc2O)oc2cc(O)cc(O)c2c1=O [ALBANIN A]

IC50 (RAW264.7 [5]): 12.1 µg/mL
SMILES: O=C1CC(c2ccc(O)cc2O)Oc2cc(O)cc(O)c21 (stereo not given) [STEPPOGENIN]

inhibition [1]: 73.8%
SMILES: COc1cc(O)cc2c1C(=O)C(Cc1ccc(O)cc1)CO2 (stereo not given)

IC50 (RAW264.7 [2]): 18.5 µg/mL (≈ 60 µM)
SMILES: CC1(C)C=Cc2c(cc(O)cc2-c2cc3ccc(O)cc3o2)O1
